In patent publication US8785655B2, “Ionic liquid solvents” (Dublin City University, priority 2009, dated 2014):

Assays:
Candida krusei ATCC 6258 = experiment: In vitro antifungal activity, MIC by microdilution (NCCLS M27-A)
[1] = system: Candida albicans ATCC 90028; experiment: as above
Escherichia coli CCM4517 = experiment: Screen against bacteria, MIC/IC80; assay type: cell-based; details: EC
[2] = system: Staphylococcus aureus H 5996/08 Methiciline-resistant; experiment: Screen against bacteria, MIC/IC80; assay type: cell-based; details: MRSA
[3] = system: Pseudomonas aeruginosa CCM 1961; experiment: Screen against bacteria, MIC/IC80; assay type: cell-based; details: PA
[4] = system: Trichophyton mentagrophytes 445; experiment: In vitro antifungal activity, MIC by microdilution (NCCLS M27-A); details: TM
Procedure: (§1) In vitro antifungal activities of the compounds were evaluated on the collection of fungal strains deposited at the Department of Biological and Medical Sciences, Faculty of Pharmacy, Charles University, Czech Republic. All the isolates were maintained on Sabouraud dextrose agar prior to being tested.
(§2) Minimum inhibitory concentrations (MICs) were determined by the microdilution format of the NCCLS M27-A guidelines. […] RPMI 1640 (Sevapharma, Prague) medium supplemented with L-glutamine and buffered with 0.165 M morpholinepropanesulfonic acid to pH 7.0 was used as the test medium. The wells of the microdilution tray contained 100 μl of the RPMI 1640 medium with 2-fold serial dilutions of the compounds (1000 to 0.24 μmol/l for the new compounds) and 100 μl of inoculum suspension. Fungal inoculum in RPMI 1640 was prepared to give a final concentration of 5×103±0.2 cfu·ml-1. The trays were incubated at 35° C. and MICs were read visually for filamentous fungi and photometrically for yeasts as an optical density (OD) at 540 nm after 24 h and 48 h. The MICs were defined as 80% inhibition of the growth of control. MICs were determined twice and in duplicate. The deviations from the usually obtained were no higher than the nearest concentration value up and down the dilution scale.

[5] = system: Aspergillus fumigatus 231; experiment: as above; details: AF
Procedure: as §1, §2

[6] = system: Candida parapsilosis ATCC 22019; experiment: as above; details: CP
Procedure: as §1, §2

[7] = system: Enterococcus sp. J 14365/08; experiment: Screen against bacteria, MIC/IC80; assay type: cell-based; details: EF
[8] = system: Klebsiella pneumoniae J 14368/08 ESBL-positive; experiment: Screen against bacteria, MIC/IC80; assay type: cell-based; details: KP-E
[9] = system: Candida lusitaniae 2446/l; experiment: In vitro antifungal activity, MIC by microdilution (NCCLS M27-A); details: CL
Procedure: as §1, §2

Candida tropicalis 156 = experiment: as above; details: CT
[10] = system: Candida albicans ATCC 44859; experiment: as above
Procedure: as §1, §2

Candida glabrata 20/l = experiment: as above; details: CG
[11] = system: Klebsiella pneumoniae D 11750/08; experiment: Screen against bacteria, MIC/IC80; assay type: cell-based; details: KP
Absidia corymbifera 272 = experiment: In vitro antifungal activity, MIC by microdilution (NCCLS M27-A); details: AC
Procedure: as §1, §2

Candida krusei E28 = experiment: as above
[12] = system: Staphylococcus epidermidis H 6966/08; experiment: Screen against bacteria, MIC/IC80; assay type: cell-based; details: SE
[13] = system: Staphylococcus aureus CCM 4516/08; experiment: Screen against bacteria, MIC/IC80; assay type: cell-based; details: SA

Measured: MIC/IC80

COC(=O)[C@H](OC(=O)C[n+]1ccn(C)c1)c1ccccc1 [KG90, R-3-methyl-1-[1-(methoxycarbonyl)-1-phenylmethoxycarbonylmethyl]imidazolium bromide]
>1000 µM: Candida krusei ATCC 6258; CK1, 24 h | Candida krusei ATCC 6258; CK1, 48 h | [1]; CA2, 24 h | [1]; CA2, 48 h | Escherichia coli CCM4517; 24 h | Escherichia coli CCM4517; 48 h | [2]; 24 h | [2]; 48 h | [3]; 24 h | [3]; 48 h | [4]; 72 h | [4]; 120 h | [5]; 24 h | [5]; 48 h | [6]; 24 h | [6]; 48 h | [7]; 24 h | [7]; 48 h | [8]; 24 h | [8]; 48 h | [9]; 24 h | [9]; 48 h | Candida tropicalis 156; 24 h | Candida tropicalis 156; 48 h | [10]; CA1, 24 h | [10]; CA1, 48 h | Candida glabrata 20/l; 24 h | Candida glabrata 20/l; 48 h | [11]; 24 h | [11]; 48 h | Absidia corymbifera 272; 24 h | Absidia corymbifera 272; 48 h | Candida krusei E28; CK2, 24 h | Candida krusei E28; CK2, 48 h | [12]; 24 h | [12]; 48 h | [13]; 24 h | [13]; 48 h

COC(=O)C(OC(=O)C[n+]1ccn(C)c1)c1ccccc1 (centres unmarked) [KG86, RS-3-methyl-1-[1-(methoxycarbonyl)-1-phenylmethoxycarbonylmethyl]imidazolium octyl sulphate]
>1000 µM: Candida krusei ATCC 6258; CK1, 24 h | Escherichia coli CCM4517; 24 h | [3]; 24 h | [4]; 72 h | [5]; 24 h | [6]; 24 h | [7]; 24 h | [9]; 24 h | Candida tropicalis 156; 24 h | [10]; CA1, 24 h | Candida glabrata 20/l; 24 h | [11]; 24 h | Absidia corymbifera 272; 24 h | [12]; 24 h | [13]; 24 h
